For one assay, the target named is JAK 1 (Homo sapiens, UniProt P23458). Description: Biochemical potency on JAK1, TR-FRET LANCE Ultra kinase assay (examples 1-99). The following applies: ATP at Km (20 μM), read-out: JAK1 inhibitory activity (pIC50 class) (converted). In short, it runs like this: (§1)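 LANCE Ultra TR-FRET with ULight-JAK-1 (Tyr1023) peptide at 30/50/20/10 nM and ATP (~Km) at 20/0.7/0.2/12 μM for JAK1/JAK2/JAK3/TYK2; enzymes 0.15/0.083/0.025/0.144 ng/μL. 1.5 h at r.t., EDTA stop, Eu-anti-phosphotyrosine read. 11-point 5-fold series from 20 μM; IC50 by variable-slope fit.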

The next assay deals with JAK 2 (Homo sapiens, UniProt O60674). As to the kind of experiment: Biochemical potency on JAK2, TR-FRET LANCE Ultra kinase assay (examples 1-99). As to conditions: ATP at Km (0.7 μM), read-out: JAK2 inhibitory activity (pIC50 class) (converted). In short, it runs like this: as §1
In general terms: Time-resolved FRET reads energy transfer from a long-lived donor to a nearby acceptor.

Another assay addresses T1, JAK 3 (Homo sapiens, UniProt P52333).
T1 sequence (P52333 1-1124): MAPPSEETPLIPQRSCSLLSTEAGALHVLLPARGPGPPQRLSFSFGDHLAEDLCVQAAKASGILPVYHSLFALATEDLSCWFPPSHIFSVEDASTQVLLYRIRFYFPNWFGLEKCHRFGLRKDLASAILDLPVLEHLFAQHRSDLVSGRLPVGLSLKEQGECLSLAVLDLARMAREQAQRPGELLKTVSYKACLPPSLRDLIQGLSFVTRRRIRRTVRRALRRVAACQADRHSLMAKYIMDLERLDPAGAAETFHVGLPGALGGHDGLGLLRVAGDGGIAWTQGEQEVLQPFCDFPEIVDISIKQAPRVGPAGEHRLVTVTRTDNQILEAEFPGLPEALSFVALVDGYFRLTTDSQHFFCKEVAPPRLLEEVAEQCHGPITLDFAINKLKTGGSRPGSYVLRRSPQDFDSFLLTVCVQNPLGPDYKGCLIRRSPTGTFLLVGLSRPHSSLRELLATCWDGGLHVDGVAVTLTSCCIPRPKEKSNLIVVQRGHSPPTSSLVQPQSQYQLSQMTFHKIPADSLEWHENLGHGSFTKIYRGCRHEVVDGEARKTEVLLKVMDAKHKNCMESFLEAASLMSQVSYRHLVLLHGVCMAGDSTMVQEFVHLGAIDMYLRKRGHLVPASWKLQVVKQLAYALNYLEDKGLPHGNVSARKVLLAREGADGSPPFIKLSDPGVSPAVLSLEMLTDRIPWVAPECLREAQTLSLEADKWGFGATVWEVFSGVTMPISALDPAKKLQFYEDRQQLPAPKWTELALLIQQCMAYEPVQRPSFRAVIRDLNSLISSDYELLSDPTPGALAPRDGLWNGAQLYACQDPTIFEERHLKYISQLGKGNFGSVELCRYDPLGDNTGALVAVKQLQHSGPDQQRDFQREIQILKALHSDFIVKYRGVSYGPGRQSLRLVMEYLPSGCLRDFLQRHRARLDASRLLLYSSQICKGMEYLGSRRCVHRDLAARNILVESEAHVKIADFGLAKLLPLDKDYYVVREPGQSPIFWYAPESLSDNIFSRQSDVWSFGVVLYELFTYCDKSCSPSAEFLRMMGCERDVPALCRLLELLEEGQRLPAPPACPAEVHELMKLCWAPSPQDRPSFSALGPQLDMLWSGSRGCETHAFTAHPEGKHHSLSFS
As to the kind of experiment: Biochemical potency on JAK3, TR-FRET LANCE Ultra kinase assay (examples 1-99). As to conditions: ATP at Km (0.2 μM), read-out: JAK3 inhibitory activity (pIC50 class) (converted). In short, it runs like this: as §1

The next assay addresses TYK2 (Homo sapiens, UniProt P29597). As to the kind of experiment: Biochemical potency on Tyk2, TR-FRET LANCE Ultra kinase assay (examples 1-99). As to conditions: ATP at Km (12 μM), read-out: Tyk2 inhibitory activity (pIC50 class) (converted). In short, it runs like this:
as §1

Sequence of TYK2 (P29597 whole entry): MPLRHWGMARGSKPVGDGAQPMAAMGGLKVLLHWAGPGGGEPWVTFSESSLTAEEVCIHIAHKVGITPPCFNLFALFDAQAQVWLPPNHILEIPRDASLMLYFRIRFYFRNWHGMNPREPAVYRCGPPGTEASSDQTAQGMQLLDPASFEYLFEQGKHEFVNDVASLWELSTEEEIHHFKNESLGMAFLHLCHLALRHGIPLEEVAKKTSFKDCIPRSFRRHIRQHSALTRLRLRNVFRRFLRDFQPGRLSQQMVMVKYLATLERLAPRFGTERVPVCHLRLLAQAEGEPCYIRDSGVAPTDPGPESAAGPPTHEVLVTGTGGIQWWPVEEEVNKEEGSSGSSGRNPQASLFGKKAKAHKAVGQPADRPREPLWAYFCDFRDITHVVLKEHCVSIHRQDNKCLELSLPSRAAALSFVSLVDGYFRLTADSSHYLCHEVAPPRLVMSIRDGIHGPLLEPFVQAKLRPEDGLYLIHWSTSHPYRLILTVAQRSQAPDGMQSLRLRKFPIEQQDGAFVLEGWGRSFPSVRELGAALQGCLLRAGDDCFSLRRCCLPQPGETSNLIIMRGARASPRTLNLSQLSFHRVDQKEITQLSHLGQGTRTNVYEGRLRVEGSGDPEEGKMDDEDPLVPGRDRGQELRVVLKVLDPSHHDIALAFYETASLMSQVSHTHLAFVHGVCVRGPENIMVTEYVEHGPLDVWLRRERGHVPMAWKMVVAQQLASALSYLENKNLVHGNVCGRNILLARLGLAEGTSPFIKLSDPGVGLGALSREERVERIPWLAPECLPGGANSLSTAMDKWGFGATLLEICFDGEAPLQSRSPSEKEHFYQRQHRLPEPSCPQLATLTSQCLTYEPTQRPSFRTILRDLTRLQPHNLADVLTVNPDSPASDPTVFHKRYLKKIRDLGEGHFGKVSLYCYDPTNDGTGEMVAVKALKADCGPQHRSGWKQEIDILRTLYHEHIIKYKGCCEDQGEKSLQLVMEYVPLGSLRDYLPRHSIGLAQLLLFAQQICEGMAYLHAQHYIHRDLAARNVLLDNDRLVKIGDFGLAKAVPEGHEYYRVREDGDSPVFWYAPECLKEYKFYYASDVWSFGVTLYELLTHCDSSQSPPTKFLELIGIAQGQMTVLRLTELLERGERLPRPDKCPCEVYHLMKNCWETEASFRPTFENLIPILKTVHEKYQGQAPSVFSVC
Sequence of JAK 2 (O60674 whole entry): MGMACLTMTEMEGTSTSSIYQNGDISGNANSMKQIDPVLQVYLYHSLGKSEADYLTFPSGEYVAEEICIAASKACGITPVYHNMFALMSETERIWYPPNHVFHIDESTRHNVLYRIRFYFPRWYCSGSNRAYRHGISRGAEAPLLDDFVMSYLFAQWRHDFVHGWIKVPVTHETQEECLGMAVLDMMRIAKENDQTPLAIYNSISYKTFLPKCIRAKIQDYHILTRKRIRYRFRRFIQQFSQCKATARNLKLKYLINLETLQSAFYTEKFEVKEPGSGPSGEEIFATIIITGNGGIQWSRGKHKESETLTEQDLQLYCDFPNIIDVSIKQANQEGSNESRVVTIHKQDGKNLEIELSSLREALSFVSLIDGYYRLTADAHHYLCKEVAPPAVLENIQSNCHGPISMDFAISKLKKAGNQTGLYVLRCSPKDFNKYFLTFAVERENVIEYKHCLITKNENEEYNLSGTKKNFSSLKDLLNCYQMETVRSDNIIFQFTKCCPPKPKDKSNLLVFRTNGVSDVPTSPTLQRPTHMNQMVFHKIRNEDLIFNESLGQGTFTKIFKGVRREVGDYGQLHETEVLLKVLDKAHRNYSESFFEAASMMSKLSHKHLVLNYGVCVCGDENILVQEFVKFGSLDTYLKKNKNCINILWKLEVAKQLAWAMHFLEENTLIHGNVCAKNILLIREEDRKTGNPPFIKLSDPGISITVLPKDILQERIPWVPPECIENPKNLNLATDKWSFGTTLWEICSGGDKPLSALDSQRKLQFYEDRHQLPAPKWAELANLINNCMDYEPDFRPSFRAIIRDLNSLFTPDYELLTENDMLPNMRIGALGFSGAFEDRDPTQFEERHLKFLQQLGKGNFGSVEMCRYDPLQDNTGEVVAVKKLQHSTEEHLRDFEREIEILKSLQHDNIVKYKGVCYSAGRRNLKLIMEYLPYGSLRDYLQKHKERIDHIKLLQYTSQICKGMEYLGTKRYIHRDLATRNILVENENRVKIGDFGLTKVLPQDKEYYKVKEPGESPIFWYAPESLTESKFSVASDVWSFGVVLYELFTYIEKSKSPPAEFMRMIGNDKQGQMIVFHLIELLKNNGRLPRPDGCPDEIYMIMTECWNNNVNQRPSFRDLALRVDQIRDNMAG
Sequence of JAK 1 (P23458 whole entry): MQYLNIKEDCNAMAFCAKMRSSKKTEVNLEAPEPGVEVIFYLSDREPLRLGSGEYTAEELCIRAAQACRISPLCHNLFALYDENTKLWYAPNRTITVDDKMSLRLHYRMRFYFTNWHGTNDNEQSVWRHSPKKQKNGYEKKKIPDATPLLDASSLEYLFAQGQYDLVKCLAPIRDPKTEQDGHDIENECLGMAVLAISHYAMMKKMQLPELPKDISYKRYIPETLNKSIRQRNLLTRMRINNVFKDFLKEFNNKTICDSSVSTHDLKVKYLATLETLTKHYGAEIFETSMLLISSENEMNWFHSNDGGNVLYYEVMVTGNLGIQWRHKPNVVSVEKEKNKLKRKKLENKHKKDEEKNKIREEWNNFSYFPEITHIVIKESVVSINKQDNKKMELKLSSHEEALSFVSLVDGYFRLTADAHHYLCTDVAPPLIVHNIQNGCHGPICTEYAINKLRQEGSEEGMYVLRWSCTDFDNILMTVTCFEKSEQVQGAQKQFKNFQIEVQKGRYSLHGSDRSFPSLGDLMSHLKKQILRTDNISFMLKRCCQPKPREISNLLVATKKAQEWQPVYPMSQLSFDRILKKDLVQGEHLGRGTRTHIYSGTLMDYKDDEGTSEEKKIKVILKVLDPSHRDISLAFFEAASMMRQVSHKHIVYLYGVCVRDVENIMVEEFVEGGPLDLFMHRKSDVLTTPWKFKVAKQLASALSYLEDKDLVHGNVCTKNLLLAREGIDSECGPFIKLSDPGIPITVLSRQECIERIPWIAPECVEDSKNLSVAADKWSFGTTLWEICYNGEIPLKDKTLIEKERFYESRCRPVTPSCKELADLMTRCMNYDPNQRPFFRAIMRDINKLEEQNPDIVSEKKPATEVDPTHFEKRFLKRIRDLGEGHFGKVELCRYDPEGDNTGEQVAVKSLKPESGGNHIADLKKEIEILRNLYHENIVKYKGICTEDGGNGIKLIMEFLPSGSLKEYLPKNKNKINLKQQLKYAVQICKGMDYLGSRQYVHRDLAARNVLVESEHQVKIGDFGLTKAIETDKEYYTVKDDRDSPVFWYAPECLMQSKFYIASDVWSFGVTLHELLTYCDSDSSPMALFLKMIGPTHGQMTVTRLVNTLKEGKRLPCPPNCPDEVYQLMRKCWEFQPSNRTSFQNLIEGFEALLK

`CNC(=O)c1nn(-c2cc(Cl)ccc2OC(F)F)c2cc(-c3cnn4cccnc34)ncc12` [Example 33, 1-(5-chloro-2-(difluoromethoxy)phenyl)-N-methyl-6-(pyrazolo[1,5-a]pyrimidin-3-yl)-1H-pyrazolo[4,3-c]pyridine-3-carboxamide]: the IC50 at JAK 1 was at most 5.01 nM; on JAK 2, at most 5.01 nM; on JAK 3, at most 5.01 nM; at TYK2, 5.01 to 50.1 nM.

Regarding `N#CCc1nn(-c2cc(Cl)ccc2OC(F)F)c2cc(-c3cnn4cccnc34)ncc12` [Example 28, 2-(1-(5-chloro-2-(difluoromethoxy)phenyl)-6-(pyrazolo[1,5-a]pyrimidin-3-yl)-1H-pyrazolo[4,3-c]pyridin-3-yl)acetonitrile], the IC50 at JAK 1 was at most 5.01 nM; on JAK 2, at most 5.01 nM; on JAK 3 it was at most 5.01 nM; on TYK2, 5.01 to 50.1 nM.

`Cc1nn(-c2cc(S(=O)(=O)CCCN(C)C)ccc2OC(F)F)c2cc(-c3cnn4cccnc34)ncc12` [Example 21, 3-((4-(difluoromethoxy)-3-(3-methyl-6-(pyrazolo[1,5-a]pyrimidin-3-yl)-1H-pyrazolo[4,3-c]pyridin-1-yl)phenyl)sulfonyl)-N,N-dimethylpropan-1-amine]: the IC50 on JAK 1 was 5.01 to 50.1 nM; at JAK 2, 5.01 to 50.1 nM; at JAK 3 it was 5.01 to 50.1 nM; on TYK2, over 50.1 nM.

For the compound `Cc1nn(-c2cc(SCC(N)=O)ccc2OC(F)F)c2cc(-c3cnn4cccnc34)ncc12` [Example 68, 2-((4-(difluoromethoxy)-3-(3-methyl-6-(pyrazolo[1,5-a]pyrimidin-3-yl)-1H-pyrazolo[4,3-c]pyridin-1-yl)phenyl)thio)acetamide], the IC50 at JAK 1 is 5.01 to 50.1 nM; on JAK 2 it was at most 5.01 nM; on JAK 3, at most 5.01 nM; at TYK2 it was over 50.1 nM.

Regarding `COc1ccc(OC)c(-n2nc(C)c3cnc(-c4cnn5cccnc45)cc32)c1` [Example 8, 1-(2,5-dimethoxyphenyl)-3-methyl-6-(pyrazolo[1,5-a]pyrimidin-3-yl)-1H-pyrazolo[4,3-c]pyridine], the IC50 is 5.01 to 50.1 nM on JAK 1, at most 5.01 nM on JAK 2, 5.01 to 50.1 nM at JAK 3 and over 50.1 nM on TYK2.

Turning to `COc1ccc(Cl)cc1-n1nc(C(=O)N[C@H]2C[C@H](N3CCOCC3)C2)c2cnc(-c3cnn4cccnc34)cc21` [Example 79, 1-(5-chloro-2-methoxyphenyl)-N-((1r,3r)-3-morpholinocyclobutyl)-6-(pyrazolo[1,5-a]pyrimidin-3-yl)-1H-pyrazolo[4,3-c]pyridine-3-carboxamide], the IC50 is 5.01 to 50.1 nM on JAK 1, 5.01 to 50.1 nM on JAK 2, 5.01 to 50.1 nM at JAK 3 and over 50.1 nM at TYK2.

In the case of `Cc1nn(-c2cc(SC3CCOCC3)ccc2OC(F)F)c2cc(-c3cnn4cccnc34)ncc12` [Example 72, 1-(2-(difluoromethoxy)-5-((tetrahydro-2H-pyran-4-yl)thio)phenyl)-3-methyl-6-(pyrazolo[1,5-a]pyrimidin-3-yl)-1H-pyrazolo[4,3-c]pyridine], the IC50 at JAK 1 is 5.01 to 50.1 nM; at JAK 2, 5.01 to 50.1 nM; at JAK 3, at most 5.01 nM; at TYK2, over 50.1 nM.

For the compound `Cc1nn(-c2cc(Cl)ccc2SC(F)F)c2cc(-c3cnn4cccnc34)ncc12` [Example 6, 1-(5-chloro-2-((difluoromethyl)thio)phenyl)-3-methyl-6-(pyrazolo[1,5-a]pyrimidin-3-yl)-1H-pyrazolo[4,3-c]pyridine], the IC50 on JAK 1 was 5.01 to 50.1 nM; on JAK 2, 5.01 to 50.1 nM; on JAK 3, at most 5.01 nM; on TYK2, 5.01 to 50.1 nM.

For the compound `COc1ccc(S(=O)(=O)CCCO)cc1-n1nc(C)c2cnc(-c3cnn4cccnc34)cc21` [Example 9, 3-((4-methoxy-3-(3-methyl-6-(pyrazolo[1,5-a]pyrimidin-3-yl)-1H-pyrazolo[4,3-c]pyridin-1-yl)phenyl)sulfonyl)propan-1-ol], the IC50 at JAK 1 is 5.01 to 50.1 nM; at JAK 2 it was at most 5.01 nM; at JAK 3, 5.01 to 50.1 nM; on TYK2 it was over 50.1 nM.

Turning to `CNC(=O)CNc1nc(-c2cnn3cccnc23)cc2c1cnn2-c1cc(Cl)ccc1OC` [Example 54, 2-((1-(5-chloro-2-methoxyphenyl)-6-(pyrazolo[1,5-a]pyrimidin-3-yl)-1H-pyrazolo[4,3-c]pyridin-4-yl)amino)-N-methylacetamide], the IC50 at JAK 1 was 5.01 to 50.1 nM; on JAK 2, 5.01 to 50.1 nM; at JAK 3, 5.01 to 50.1 nM; on TYK2, over 50.1 nM.

For the compound `Cc1nn(-c2cc(SC3CC3)ccc2OC(F)F)c2cc(-c3cnn4cccnc34)ncc12` [Example 71, 1-(5-(cyclopropylthio)-2-(difluoromethoxy)phenyl)-3-methyl-6-(pyrazolo[1,5-a]pyrimidin-3-yl)-1H-pyrazolo[4,3-c]pyridine], the IC50 was 5.01 to 50.1 nM on JAK 1, 5.01 to 50.1 nM on JAK 2, 5.01 to 50.1 nM at JAK 3 and over 50.1 nM at TYK2.

On to `Cc1nn(-c2cc(SCC(=O)NCCO)ccc2OC(F)F)c2cc(-c3cnn4cccnc34)ncc12` [Example 69, 2-((4-(difluoromethoxy)-3-(3-methyl-6-(pyrazolo[1,5-a]pyrimidin-3-yl)-1H-pyrazolo[4,3-c]pyridin-1-yl)phenyl)thio)-N-(2-hydroxyethyl)acetamide], for which the IC50 at JAK 1 was 5.01 to 50.1 nM; at JAK 2, 5.01 to 50.1 nM; at JAK 3, 5.01 to 50.1 nM; at TYK2 it was over 50.1 nM.

In the case of `COc1ccc(Cl)cc1-n1nc(N2CCNCC2)c2cnc(-c3cnn4cccnc34)cc21` [Example 48, 1-(5-chloro-2-methoxyphenyl)-3-(piperazin-1-yl)-6-(pyrazolo[1,5-a]pyrimidin-3-yl)-1H-pyrazolo[4,3-c]pyridine], the IC50 on JAK 1, on JAK 2, at JAK 3 and on TYK2 was 5.01 to 50.1 nM each time.

In the case of `Cc1nn(-c2cc(Cl)ccc2OC(F)F)c2cc(-c3cnn4cccnc34)ncc12` [Example 11, 1-(5-chloro-2-(difluoromethoxy)phenyl)-3-methyl-6-(pyrazolo[1,5-a]pyrimidin-3-yl)-1H-pyrazolo[4,3-c]pyridine], the IC50 was at most 5.01 nM at JAK 1, at most 5.01 nM at JAK 2, at most 5.01 nM on JAK 3 and 5.01 to 50.1 nM on TYK2.

For the compound `CSc1ccc(OC(F)F)c(-n2nc(NCCCN(C)C)c3cnc(-c4cnn5cccnc45)cc32)c1` [Example 46, N1-(1-(2-(difluoromethoxy)-5-(methylthio)phenyl)-6-(pyrazolo[1,5-a]pyrimidin-3-yl)-1H-pyrazolo[4,3-c]pyridin-3-yl)-N3,N3-dimethylpropane-1,3-diamine], the IC50 at JAK 1 was 5.01 to 50.1 nM; at JAK 2, at most 5.01 nM; on JAK 3 it was at most 5.01 nM; at TYK2, 5.01 to 50.1 nM.

`COc1ccc(Cl)cc1-n1nc(C(=O)N[C@H]2C[C@H](N)C2)c2cnc(-c3cnn4cccnc34)cc21` [Example 77, N-((1r,3r)-3-aminocyclobutyl)-1-(5-chloro-2-methoxyphenyl)-6-(pyrazolo[1,5-a]pyrimidin-3-yl)-1H-pyrazolo[4,3-c]pyridine-3-carboxamide]: the IC50 at JAK 1, on JAK 2, on JAK 3 and at TYK2 was 5.01 to 50.1 nM throughout.

Regarding `COc1ccc(Cl)cc1-n1nc(OC)c2cnc(-c3cnn4cccnc34)cc21` [Example 50, 1-(5-chloro-2-methoxyphenyl)-3-methoxy-6-(pyrazolo[1,5-a]pyrimidin-3-yl)-1H-pyrazolo[4,3-c]pyridine], the IC50 at JAK 1, on JAK 2, at JAK 3 and at TYK2 was 5.01 to 50.1 nM each time.

The record behind these values is patent US20240279240A1, “HETEROCYCLIC DERIVATIVES AS JANUS KINASE INHIBITORS” (CHIESI FARMACEUTICI S.P.A., priority 2021, published 2024).
